The target of the experiment is botox A (Clostridium botulinum, UniProt P0DPI1). Type of experiment: biochemical. Set-up: Rate (initial rate of peptide hydrolysis) / Rate (initial rate of hydrolysis) In AcBSA: unit not given here.

Values joined by “and” are separate entries in the source; they are usually repeats but may differ in a detail not shown here. Equal values may be shown once. Read-outs that look alike come from different tables or passages of the source. Where a SMILES comes first, the peptide text is derived from it. [ ]: non-standard residue; d: D form. Abu = CC[C@H](N)C(=O)O

Sequence of botox A (P0DPI1 2-448 limits assumed): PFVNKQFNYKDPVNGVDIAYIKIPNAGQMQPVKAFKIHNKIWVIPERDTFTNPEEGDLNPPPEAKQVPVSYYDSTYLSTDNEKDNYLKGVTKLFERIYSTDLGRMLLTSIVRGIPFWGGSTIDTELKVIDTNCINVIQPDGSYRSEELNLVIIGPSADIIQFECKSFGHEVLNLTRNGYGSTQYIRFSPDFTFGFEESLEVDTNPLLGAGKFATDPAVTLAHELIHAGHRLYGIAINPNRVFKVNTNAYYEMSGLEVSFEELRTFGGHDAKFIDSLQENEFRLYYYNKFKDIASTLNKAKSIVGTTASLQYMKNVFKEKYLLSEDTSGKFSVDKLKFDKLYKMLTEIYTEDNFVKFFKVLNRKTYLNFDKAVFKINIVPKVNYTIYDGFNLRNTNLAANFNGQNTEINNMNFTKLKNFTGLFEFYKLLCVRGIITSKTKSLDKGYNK

For “Ac-SNKTRIDQANQRATKML-NH2 [E8Q, S N K T R I D Q A N Q R A T K M L]”, the “Relative Rate (initial hydrolysis rates relative to peptide [1-17])” value came out at 2.08; the “decrease in Km compared with peptide [1-17]” value was “about 50%”; the “hydrolysis by botox A, described in words” value (“hydrolysis … in words” for short) was “doubling of the rate of hydrolysis”. In addition, the kcat (in 1/s) worked out at 51 ± 3. Moreover, the Km (read-out: Km) came to 750 ± 40 µM.
As for “Ac-SNRTRIDEANQRATRML-NH2 [peptide 2, S N R T R I D E A N Q R A T R M L]”, the Kcat In AcBSA worked out at 61 s⁻¹, the Kcat In BSA is 68 s⁻¹, the “Rate (initial rate of hydrolysis) In AcBSA” value is reported as 16 and the “Rate (initial rate of hydrolysis) In BSA” value is on record as 11. Besides, the “Rate (initial rate of peptide hydrolysis)” value came out at 11.3 ± 0.5; the “Relative Rate” value is 1.5; the “hydrolysis … in words” value was “slightly faster than peptide 1”. Under “read-out: Km In AcBSA”, the Michaelis constant (Km) turned out to be 530 µM. Also, the Michaelis-Menten constant (Km) (read-out: Km In BSA) was 1400 µM.
As to “Ac-SNRTRIDQANQRATRML-NH2 [compound 4, S N R T R I D Q A N Q R A T R M L]”, the Kcat In AcBSA came out at 68 s⁻¹, the Kcat In BSA is 64 s⁻¹, the “Rate (initial rate of hydrolysis) In AcBSA” value came out at 19 and the “Rate (initial rate of hydrolysis) In BSA” value stood at 13. Further, the “Rate (initial rate of peptide hydrolysis)” value stood at 12.6 ± 0.5 and the “Relative Rate” value is given as 1.7. Besides, for the setting “read-out: Km In AcBSA”, the Km is 470 µM. Besides, the Km (read-out: Km In BSA) worked out at 760 µM.
With “Ac-SNKTRIDEANARATKML-NH2 [Q11A, S N K T R I D E A N A R A T K M L]”, the “Relative Rate (initial hydrolysis rates relative to peptide [1-17])” value worked out at 0.19 and the “hydrolysis … in words” value is given as “slowed but did not eliminate hydrolysis”.
As for “Ac-SNKTRIDEANQRATKM-NH2 [[1-16], S N K T R I D E A N Q R A T K M]”, the “Relative Rate (initial hydrolysis rates relative to peptide [1-17])” value is listed as “.17” and the “hydrolysis … in words” value is listed as “excellent substrate”. The kcat (in 1/s) came out at 6 ± 4. Besides, the Km (read-out: Km) came out at 1600 ± 100 µM.
As for “Ac-SNKTRIDEANQRASKML-NH2 [T14S, S N K T R I D E A N Q R A S K M L]”, the Km came to 1200 µM; the “Relative Rate (initial hydrolysis rates relative to peptide [1-17])” value was determined as 0.26; the “hydrolysis … in words” value is reported as “significantly lower hydrolysis rate”; the kcat was ~9.0 and 9.0 sec^-1. Further, the Km (read-out: Km) is roughly 1200 µM.
Turning to “Ac-TRIDEANQRATKM-NH2 [13-residue peptide]”, the “reduction in rate of botox A-catalyzed hydrolysis” value worked out at 43%.
Consider “Ac-SNKTRINEANQRATKML-NH2 [D7N, S N K T R I N E A N Q R A T K M L]”, for which the “Relative Rate (initial hydrolysis rates relative to peptide [1-17])” value was found to be 0.23 and the “kcat as percent of that for peptide [1-17]” value is reported as “about 10%”. Also, the kcat (in 1/s) is 5.0 ± 0.3. Also, where the note is “read-out: Km”, the Km stood at 820 ± 60 µM.
Consider `CC[C@H](NC(=O)[C@H](CCC(=O)O)NC(=O)[C@H](CC(=O)O)NC(=O)[C@@H](NC(=O)[C@H](CCCNC(=N)N)NC(=O)[C@@H](NC(=O)[C@H](CCCCN)NC(=O)[C@H](CC(N)=O)NC(=O)[C@H](CO)NC(C)=O)[C@@H](C)O)[C@@H](C)CC)C(=O)N[C@@H](CC(N)=O)C(=O)N[C@@H](CCC(N)=O)C(=O)N[C@@H](CCCNC(=N)N)C(=O)N[C@@H](C)C(=O)N[C@H](C(=O)N[C@@H](CCCCN)C(=O)N[C@@H](CCSC)C(=O)N[C@@H](CC(C)C)C(N)=O)[C@@H](C)O` [A9B, S N K T R I D E B N Q R A T K M L] (Ac-SNKTRIDE[Abu]NQRATKML-NH2), for which the “decrease in kcat compared with peptide [1-17]” value is listed as “about 75%” and the “hydrolysis … in words” value is recorded as “still a good substrate”. In addition, for the setting “in 1/s”, the kcat is given as 11 ± 1. In addition, the Km (read-out: Km) was found to be 1100 ± 100 µM.
Take `CC[C@H](NC(=O)[C@H](CC(=O)O)NC(=O)[C@@H](NC(=O)[C@H](CCCNC(=N)N)NC(=O)[C@H](CC)NC(=O)[C@H](CCCNC(=N)N)NC(=O)[C@H](CC(N)=O)NC(=O)[C@H](CO)NC(C)=O)[C@@H](C)CC)C(=O)N[C@@H](C)C(=O)N[C@@H](CC(N)=O)C(=O)N[C@@H](CCC(N)=O)C(=O)N[C@@H](CCCNC(=N)N)C(=O)N[C@@H](C)C(=O)N[C@H](C(=O)N[C@@H](CCCNC(=N)N)C(=O)N[C@@H](CCSC)C(=O)N[C@@H](CC(C)C)C(N)=O)[C@@H](C)O` [peptide 6, S N R B R I D B A N Q R A T R M L] (Ac-SNR[Abu]RID[Abu]ANQRATRML-NH2): the Kcat In AcBSA was 86 s⁻¹, the Kcat In BSA was 89 s⁻¹, the “Rate (initial rate of hydrolysis) In AcBSA” value is recorded as 25 and the “Rate (initial rate of hydrolysis) In BSA” value worked out at 24. For the same compound, the “Rate (initial rate of peptide hydrolysis)” value amounted to 25.3 ± 0.7; the “Relative Rate” value turned out to be 3.3; the “hydrolysis … in words” value is given as “more than three times faster”. In addition, the Km (read-out: Km In AcBSA) was 400 µM. Moreover, where the note is “read-out: Km In BSA”, the Km worked out at 520 µM.
As for “Ac-SNKTRIDEANNRATKML-NH2 [Q11N, S N K T R I D E A N N R A T K M L]”, the “hydrolysis … in words” value was “slowed but did not eliminate hydrolysis”. For the same compound, the kcat (in 1/s) is listed as 19 ± 3. Also, the Km (read-out: Km) came out at 750 ± 80 µM.
For the compound `CC[C@H](NC(=O)[C@H](CC(=O)O)NC(=O)[C@@H](NC(=O)[C@H](CCCNC(=N)N)NC(=O)[C@@H](NC(=O)[C@H](CCCNC(=N)N)NC(=O)[C@H](CC(N)=O)NC(=O)[C@H](CO)NC(C)=O)[C@@H](C)O)[C@@H](C)CC)C(=O)N[C@@H](C)C(=O)N[C@@H](CC(N)=O)C(=O)N[C@@H](CCC(N)=O)C(=O)N[C@@H](CCCNC(=N)N)C(=O)N[C@@H](C)C(=O)N[C@H](C(=O)N[C@@H](CCCNC(=N)N)C(=O)N[C@@H](CCSC)C(=O)N[C@@H](CC(C)C)C(N)=O)[C@@H](C)O` [peptide 5, S N R T R I D B A N Q R A T R M L] (Ac-SNRTRID[Abu]ANQRATRML-NH2), the Kcat In AcBSA amounted to 70 s⁻¹, the Kcat In BSA stood at 69 s⁻¹, the “Rate (initial rate of hydrolysis) In AcBSA” value was determined as 21 and the “Rate (initial rate of hydrolysis) In BSA” value was determined as 13. The “Rate (initial rate of peptide hydrolysis)” value came to 12.9 ± 0.3, the “Relative Rate” value was found to be 1.7 and the “specific activity of type A toxin against the peptide” value was found to be 21 µmol/min/mg. For the same compound, under “read-out: Km In AcBSA”, the Km was 330 µM. Further, the Km (read-out: Km In BSA) amounted to 740 µM.
As to `CC[C@H](NC(=O)[C@H](CCCNC(=N)N)NC(=O)[C@H](CC(N)=O)NC(=O)[C@H](CO)NC(C)=O)C(=O)N[C@@H](CCCNC(=N)N)C(=O)N[C@H](C(=O)N[C@@H](CC(=O)O)C(=O)N[C@@H](CCC(=O)O)C(=O)N[C@@H](C)C(=O)N[C@@H](CC(N)=O)C(=O)N[C@@H](CCC(N)=O)C(=O)N[C@@H](CCCNC(=N)N)C(=O)N[C@@H](C)C(=O)N[C@H](C(=O)N[C@@H](CCCNC(=N)N)C(=O)N[C@@H](CCSC)C(=O)N[C@@H](CC(C)C)C(N)=O)[C@@H](C)O)[C@@H](C)CC` [peptide 3, S N R B R I D E A N Q R A T R M L] (Ac-SNR[Abu]RIDEANQRATRML-NH2), the Kcat In AcBSA stood at 58 s⁻¹, the Kcat In BSA stood at 75 s⁻¹, the “Rate (initial rate of hydrolysis) In AcBSA” value came to 18 and the “Rate (initial rate of hydrolysis) In BSA” value stood at 16. Moreover, the “Rate (initial rate of peptide hydrolysis)” value is given as 15.8 ± 0.8 and the “Relative Rate” value is on record as 2.1. Besides, the Km (read-out: Km In AcBSA) amounted to 320 µM. Under “read-out: Km In BSA”, the Km was 910 µM.
With “Ac-SNKTRIDEANQAATKML-NH2 [R12A, S N K T R I D E A N Q A A T K M L]”, the “Relative Rate (initial hydrolysis rates relative to peptide [1-17])” value was less than 0.02.

In general, Km refers to the concentration of substrate that gives half-maximal velocity.

The values are drawn from patent US5965699A (priority 1996, dated 1999).
